What was measured:
Test in all cases: combination Emax (second highest fraction inhibited in the dose matrix, 72 h); higher = more inhibition; extreme values may be limits of the assay
[1] = system: SUP-B15 (B-Lymphoblastic Leukemia)
Method in brief: (§1)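 Cell lines in DMEM/F12 or RPMI with 10% FBS were plated in 1536-well plates, held 24 hours at 37°C, 5% CO2, then given two-drug dose matrices for 72 hours (DMSO typically 0.2%). Viability was read by CellTiter-Glo 2.0 luminescence and scaled as inhibition from 0 (vehicle wells) to 1 (blank wells). Combination Emax is the second-highest inhibition in the matrix; Bliss excess is observed combination effect minus expected EA + EB − EA·EB, EA and EB being single-agent effects.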

G-361 (Melanoma) = system: G-361 (Melanoma)
Method in brief: as §1

SJSA-1 (Osteosarcoma) = system: SJSA-1 (Osteosarcoma)
Method in brief: as §1

[2] = system: NCI-H661 (Non-Small Cell Lung Carcinoma)
Method in brief: as §1

[3] = system: NCI-H929 (Plasma Cell Myeloma)
Method in brief: as §1

[4] = system: DAN-G (Pancreatic Carcinoma)
Method in brief: as §1

[5] = system: NCCIT (Other Solid Carcinomas)
Method in brief: as §1

[6] = system: H9 (T-Cell Non-Hodgkin's Lymphoma)
Method in brief: as §1

[7] = system: RPMI-8226 (Plasma Cell Myeloma)
Method in brief: as §1

[8] = system: HCC1419 (Breast Carcinoma)
Method in brief: as §1

[9] = system: T-T (Esophageal Squamous Cell Carcinoma)
Method in brief: as §1

[10] = system: HCC1187 (Breast Carcinoma)
Method in brief: as §1

[11] = system: PC-3 (Prostate Carcinoma)
Method in brief: as §1

[12] = system: ESO51 (Esophageal Adenocarcinoma)
Method in brief: as §1

[13] = system: MOLM-13 (Acute Myeloid Leukemia)
Method in brief: as §1

[14] = system: CHSA8926 (Chondrosarcoma)
Method in brief: as §1

[15] = system: DMS-114 (Small Cell Lung Carcinoma)
Method in brief: as §1

[16] = system: MOG-G-CCM (Low Grade Glioma)
Method in brief: as §1

[17] = system: CW-2 (Colorectal Carcinoma)
Method in brief: as §1

[18] = system: SNU-398 (Hepatocellular Carcinoma)
Method in brief: as §1

## CCc1c2c(nc3ccc(O)cc13)-c1cc3c(c(=O)n1C2)COC(=O)[C@]3(O)CC [SN-38] + CN(C)CCCOc1ccc(-c2ccc3ncc4c(c3c2)n(C2CCOCC2)c(=O)n4C)cn1 [AZD0156] (first compound max 0.3 µM, 7x7, partner max 1 µM)
[1]
  combination Emax: 1
G-361 (Melanoma)
  combination Emax: 0.324
SJSA-1 (Osteosarcoma)
  combination Emax: 0.673
[2]
  combination Emax: 0.463
[3]
  combination Emax: 0.869
[4]
  combination Emax: 0.532
[5]
  combination Emax: 0.246
[6]
  combination Emax: 1
[7]
  combination Emax: 0.77
[8]
  combination Emax: 0.444
[9]
  combination Emax: 0.803
[10]
  combination Emax: 0.336
[11]
  combination Emax: 0.688
[12]
  combination Emax: 0.586
[13]
  combination Emax: 1
[14]
  combination Emax: 0.319
[15]
  combination Emax: 0.514
[16]
  combination Emax: 0.429
[17]
  combination Emax: 0.624
[18]
  combination Emax: 0.231

## CN(CCO)CC[C@H](CSc1ccccc1)Nc1ccc(S(=O)(=O)NC(=O)c2ccc(N3CCC([C@@H](O)c4ccccc4-c4ccc(Cl)cc4)CC3)cc2)cc1S(=O)(=O)C(F)(F)F [AZD4320] + C[C@@H]1COCCN1C2=NC(=NC(=C2)C3(CC3)[S@](=N)(=O)C)C4=C5C=CNC5=NC=C4 [AZD6738] (first compound max 1 µM, 7x7, partner max 10 µM)
[1]
  combination Emax: 1
G-361 (Melanoma)
  combination Emax: 0.629
SJSA-1 (Osteosarcoma)
  combination Emax: 0.557
[2]
  combination Emax: 0.674
[3]
  combination Emax: 0.739
[4]
  combination Emax: 0.765
[5]
  combination Emax: 0.727
[6]
  combination Emax: 1
[7]
  combination Emax: 1
[8]
  combination Emax: 0.367
[9]
  combination Emax: 0.561
[10]
  combination Emax: 0.536
[11]
  combination Emax: 0.584
[12]
  combination Emax: 0.861
[13]
  combination Emax: 1
[14]
  combination Emax: 0.761
[15]
  combination Emax: 0.592
[16]
  combination Emax: 0.783
[17]
  combination Emax: 0.49
[18]
  combination Emax: 0.77

## CN(CCO)CC[C@H](CSc1ccccc1)Nc1ccc(S(=O)(=O)NC(=O)c2ccc(N3CCC([C@@H](O)c4ccccc4-c4ccc(Cl)cc4)CC3)cc2)cc1S(=O)(=O)C(F)(F)F [AZD4320] + CCN(CCO)CCCOc1ccc2c(Nc3cc(CC(=O)Nc4cccc(F)c4)[nH]n3)ncnc2c1 [AZD2811] (first compound max 1 µM, 7x7, partner max 1 µM)
[1]
  combination Emax: 1
G-361 (Melanoma)
  combination Emax: 0.41
SJSA-1 (Osteosarcoma)
  combination Emax: 0.335
[2]
  combination Emax: 0.0831
[3]
  combination Emax: 0.227
[4]
  combination Emax: 0.355
[5]
  combination Emax: 0.181
[6]
  combination Emax: 0.978
[7]
  combination Emax: 0.986
[8]
  combination Emax: 0.0755
[9]
  combination Emax: 0.282
[10]
  combination Emax: 0.914
[11]
  combination Emax: 0.366
[12]
  combination Emax: 0.233
[13]
  combination Emax: 1
[14]
  combination Emax: 0.643
[15]
  combination Emax: 0.247
[16]
  combination Emax: 0.773
[17]
  combination Emax: 0.12
[18]
  combination Emax: 0.593

## C[C@@H]1COCCN1c1cc(C2([S@](C)(=N)=O)CC2)nc(-c2ccnc3[nH]ccc23)n1 [AZD6738] + O=C(c1cc(Cc2n[nH]c(=O)c3ccccc23)ccc1F)N1CCN(C(=O)C2CC2)CC1 [Olaparib] (first compound max 10 µM, 7x7, partner max 10 µM)
[1]
  combination Emax: 0.969
G-361 (Melanoma)
  combination Emax: 0.456
SJSA-1 (Osteosarcoma)
  combination Emax: 0.377
[2]
  combination Emax: 0.54
[3]
  combination Emax: 0.668
[4]
  combination Emax: 0.643
[5]
  combination Emax: 0.609
[6]
  combination Emax: 0.911
[7]
  combination Emax: 0.96
[8]
  combination Emax: 0.191
[9]
  combination Emax: 0.448
[10]
  combination Emax: 0.532
[11]
  combination Emax: 0.514
[12]
  combination Emax: 0.555
[13]
  combination Emax: 1
[14]
  combination Emax: 0.36
[15]
  combination Emax: 0.528
[16]
  combination Emax: 0.42
[17]
  combination Emax: 0.473
[18]
  combination Emax: 0.354

## CC1(C)CCC(CN2CCN(c3ccc(C(=O)NS(=O)(=O)c4ccc(NCC5CCOCC5)c([N+](=O)[O-])c4)c(Oc4cnc5[nH]ccc5c4)c3)CC2)=C(c2ccc(Cl)cc2)C1 [Venetoclax] + CN(C)CCCOc1ccc(-c2ccc3ncc4c(c3c2)n(C2CCOCC2)c(=O)n4C)cn1 [AZD0156] (first compound max 1 µM, 7x7, partner max 1 µM)
[1]
  combination Emax: 1
G-361 (Melanoma)
  combination Emax: 0.115
SJSA-1 (Osteosarcoma)
  combination Emax: 0.177
[2]
  combination Emax: 0.122
[3]
  combination Emax: 0.691
[4]
  combination Emax: 0.264
[5]
  combination Emax: 0.275
[6]
  combination Emax: 0.156
[7]
  combination Emax: 0.43
[8]
  combination Emax: 0.289
[9]
  combination Emax: 0.204
[10]
  combination Emax: 0.173
[11]
  combination Emax: 0.21
[12]
  combination Emax: 0.147
[13]
  combination Emax: 0.898
[14]
  combination Emax: 0.212
[15]
  combination Emax: 0.245
[16]
  combination Emax: 0.385
[17]
  combination Emax: 0.174
[18]
  combination Emax: 0.234

## Cc1c2c(nn1C)CSCc1cc(n(C)n1)CSc1cc(c3ccccc3c1)OCCCc1c(C(=O)O)n(C)c3c-2c(Cl)ccc13 [AZD5991] + C1CN(CCC1(C(=O)N[C@@H](CCO)C2=CC=C(C=C2)Cl)N)C3=NC=NC4=C3C=CN4 [Capivasertib] (first compound max 1 µM, 7x7, partner max 3 µM)
[1]
  combination Emax: 1
G-361 (Melanoma)
  combination Emax: 1
SJSA-1 (Osteosarcoma)
  combination Emax: 0.374
[2]
  combination Emax: 0.755
[3]
  combination Emax: 1
[4]
  combination Emax: 0.401
[5]
  combination Emax: 0.82
[6]
  combination Emax: 0.847
[7]
  combination Emax: 0.976
[8]
  combination Emax: 0.555
[9]
  combination Emax: 0.922
[10]
  combination Emax: 1
[11]
  combination Emax: 0.287
[12]
  combination Emax: 0.0827
[13]
  combination Emax: 1
[14]
  combination Emax: 0.597
[15]
  combination Emax: 0.911
[16]
  combination Emax: 0.326
[17]
  combination Emax: 0.179
[18]
  combination Emax: 1

Reference: the supplement of paper PMC11061612
